{
  "source": "patent US7361371B2",
  "about": "“Extract of petasites japonicus having neuroprotective effect and antioxidant activity” (Industry & Acacemic Cooreration in Chungnam National …, priority 2003, dated 2008)",
  "key": {"[1]": {"system": "lipid peroxidation in the brain of a mouse", "test": "Inhibition of Fe2+/ascorbic acid-induced lipid peroxidation (TBARS) in mouse brain homogenate", "format": "biochemical", "details": "Fe2+ 0.2 mM / ascorbic acid 25 mM, 37° C., 30 minutes, TBARS at 533 nm", "experimental": "Concretely, the brain of an ICR male mouse (22.5±2.5 g, 6 to 8 weeks old) was removed and washed with 0.15 M KCl solution containing 2 mm EDTA. The washed brain was ground using a tissue homogenizer (Teflon pestle). To 1 ml of the ground brain, 1 ml of 8.1% SDS, 2 ml of 20% acetic acid and 1 ml of 0.75% thiobarbituric acid (TBA) were added. The resulting mixture was boiled, cooled in ice for 30 minutes and centrifuged at 14,000 rpm for 10 minutes to obtain the supernatant. To the supernatant, 1 ml of each of the various solvent fractions of Petasites japonicus from Example 1 was added and Fe^2+ 0.2 mM and ascorbic acid 25 mM were added. The resulting mixture was thoroughly mixed while stirring at 37° C. After 30 minutes, to the mixture, 15% trichloroacetic acid (TCA) and 0.75% TBA were added in the same volume as the mixture. The reaction was boiled for 15 minutes, stored in ice for 5 minutes and centrifuged at 3,000 rpm for 10 minutes to remove corpuscolates. The supernatant was taken and measured for absorption at 533 nm (Bidlack, W. T., and Tappel, A. L., Lipids, 1973, 8, 177-182). Malondialdehyde (Gutteridge, J. M. C., Analytical Biochemistry, 1975, 69, 518-526) produced by hydrolysis of 1,1,3,3,-tetraethoxypropane) was used for calibration.\nAsample: absorption of a mixture of brain hydrogenate, ascorbic acid/Fe^2+ and Petasites japonicus extract at 533 nm, […]"}, "glutathione peroxidase": {"system": "glutathione peroxidase", "format": "in vivo, mouse", "details": "KA alone or butanol fraction pre-administered; FIG. 6a"}, "glutathione (GSH)": {"system": "glutathione (GSH)", "format": "in vivo, mouse", "details": "KA administered alone", "experimental": "About 0.2 g of brain tissue from each brain was put into cold 6% metaphosphoric acid solution and crushed using a cold ceramic percussion motor. The crushed solution was centrifuged at 4° C., 27,000 g for 20 minutes. The supernatant was taken. To 0.05 Ml of the supernatant, 0.39 Ml of 100 mM phosphate buffer (pH 7.4) containing 5 mM EDTA, 0.025 ml of 10 mM DTNB (5,5-dithiobis-(2-nitrobenzoic acid)) and 0.08 ml of 5 mM NADPH were added and equilibrated at 25° C. for 3 minutes. Then, 2 units of glutathione (GSH) reductase was added thereto to initiate a reaction. The formation of 2-nitro-5-thiobenzoic acid was monitored by measuring the adsorption at 412 nm using a UV/VIS spectrophotometer (Roberts, J. C. and Francetic, D. J., Analytical Biochemistry, 1993, 211, 183-187; Raymond, C. et al., Journal of Nutrition, 1995, 125, 3062-3070). The total GSH amount contained in a sample was determined from a standard curve constructed by plotting the adsorption at 412 nm versus the known amount of GSH. The amount of GSH was shown by an average±S.E.M of data obtained by performing the experiment using 4 to 8 mice 3 times."}, "[2]": {"system": "ICR mice (neurotoxic behavior induced by KA)", "test": "Neuronal behavior change (tail arch, tremor, seizure) after KA", "format": "in vivo, mouse", "details": "KA 44 mg/kg, fraction I or II 200 mg/kg", "experimental": "(§1) Male ICR mice (22.5±2.5 g, 6 to 8 weeks old) were freely fed with solid feed for experimental animals (SamYang Co. Korea) in a polycarbonate cage (5 animals per cage). The mice were bred under conditions including a temperature and a relative humidity maintained at 23±3° C. and 60±10%, respectively, a light-dark cycle of 12 hours and illumination of 150 to 200 Lux. Only the animals which had been judged to be healthy during the acclimation period were randomly assigned to groups for the experiment. The breeding and experiment of animals were performed according to Guide for care and use of laboratory animal (National Institutes of Health Guidelines, 1985, 85-23). The groups of mice were unspecifically grouped and the body weight was measured every day. […] After the KA injection, the behavioral change of the mice was monitored by the method of Kondo et al. (Journal of Cerebral Blood Flow and Metabolism, 1997, 17, 241-256). Also, on the next day after the KA injection, the brains were removed from the mice, frozen in liquid nitrogen and stored at −80° C. for 48 hours at maximum until used."}, "[3]": {"system": "pyramidal cells in CA1 and CA3 sites of the hippocampus", "test": "Tissue biopsy: surviving nerve cells in hippocampus after KA", "format": "in vivo, mouse", "details": "brain removed on the next day after KA; butanol fraction pretreated", "source_text": "Also, the brain removed on the next day after the administration of KA was subjected to a tissue biopsy to examine damage of pyramidal cells in CA1 and CA3 sites of the hippocampus."}, "[4]": {"system": "lipid peroxidation in brain tissue", "test": "KA-induced lipid peroxidation (TBARS amount) in brain homogenate of treated mice", "format": "in vivo, mouse", "details": "KA alone, or pre-treatment with butanol fraction 400 mg/kg, Fraction I or Fraction II", "procedure": "Concretely, the brains were removed from mice\nBrain tissue from each brain was crushed in 0.25M sucrose solution and the crushed brain homogenate was measured for the TBARS amount contained therein."}, "[5]": {"system": "ICR mice (KA-induced oxidative neurotoxicity)", "test": "Fatality rate of mice after kainic acid (KA) injection", "format": "in vivo, mouse", "procedure": "KA, and KA and the butanol fraction of Petasites japonicus were administered and the fatality rate was measured.\nThe fractions were subjected to the same procedures as described above to measure the fatality rate."}, "[6]": {"test": "Change in body weight and brain weight of mice", "experimental": "as §1"}, "[7]": {"details": "KA 44 mg/kg, fraction I or II 200 mg/kg"}, "[8]": {"details": "KA 50 mg/kg, butanol fraction 400 mg/kg"}},
  "data": [
    {"smiles": "O=C1O[C@H]([C@@H](O)CO)C(O)=C1O", "note": "[Ascorbic acid]", "values": [
      {"measurement": "IC50 (inhibition of lipid peroxidation)", "setting": "[1]", "result": 790, "unit": "µg/mL"}
    ]},
    {"smiles": "C=C(C)[C@H]1CN[C@H](C(=O)O)[C@H]1CC(=O)O", "note": "[KA, kainic acid]", "values": [
      {"measurement": "Glutathione peroxidase activity (in words)", "setting": "glutathione peroxidase", "result": "reduced"},
      {"measurement": "Total GSH amount in the brain tissue", "setting": "glutathione (GSH)", "result": 20, "unit": "%"},
      {"measurement": "Tail arch (upper value, unit not given)", "setting": "[2]; stage 1", "result": "12.4 ± 4.7"},
      {"measurement": "Tail arch (value in brackets)", "setting": "[2]; stage 1", "result": "(100%)"},
      {"measurement": "Tremor (upper value, unit not given)", "setting": "[2]; stage 2", "result": "16.7 ± 6.1"},
      {"measurement": "Tremor (value in brackets)", "setting": "[2]; stage 2", "result": "(100%)"},
      {"measurement": "Seizure (upper value, unit not given)", "setting": "[2]; stage 3", "result": "18.9 ± 19.5"},
      {"measurement": "Seizure (value in brackets)", "setting": "[2]; stage 3", "result": "(100%)"},
      {"measurement": "Surviving nerve cells in the CA1 site of the hippocampus", "setting": "[3]", "result": 18.5, "unit": "%"},
      {"measurement": "Surviving nerve cells in the CA3 site of the hippocampus", "setting": "[3]", "result": 8.9, "unit": "%"},
      {"measurement": "TBARS content of brain homogenate (in words)", "setting": "[4]", "result": "increased"},
      {"measurement": "Fatality rate", "setting": "[5]; Exp. Group 1: KA 50 mg/kg intraperitoneal, butanol fraction 400 mg/kg oral once per day for 4 days before KA", "result": 54, "unit": "%"},
      {"measurement": "Fatality rate", "setting": "[5]; Exp. Group 2: KA 50 mg/kg intraperitoneal, butanol fraction 150 mg/kg oral once per day for 4 days before KA", "result": 63.6, "unit": "%"},
      {"measurement": "Fatality rate", "setting": "[5]; [7]", "result": 54, "unit": "%"},
      {"measurement": "Body weight change", "setting": "[6]; [7]", "result": "0.39 ± 0.29", "unit": "g"},
      {"measurement": "Brain weight", "setting": "[6]; [7]", "result": "0.327 ± 0.0098", "unit": "g"},
      {"measurement": "Final body weight", "setting": "[6]; [7]", "result": "29.88 ± 0.86", "unit": "g"},
      {"measurement": "Initial body weight", "setting": "[6]; [7]", "result": "29.49 ± 0.91", "unit": "g"},
      {"measurement": "Body weight change", "setting": "[6]; [8]", "result": "0.95 ± 0.385", "unit": "g"},
      {"measurement": "Brain weight", "setting": "[6]; [8]", "result": "0.346 ± 0.0038", "unit": "g"},
      {"measurement": "Final body weight", "setting": "[6]; [8]", "result": "32.34 ± 0.58", "unit": "g"},
      {"measurement": "Initial body weight", "setting": "[6]; [8]", "result": "31.39 ± 0.49", "unit": "g"}
    ]}
  ]
}
